According to US20090068290A1, “BIFEPRUNOX DOSES FOR TREATING SCHIZOPHRENIA” (priority 2006, published 2009):

How the values were obtained:
[1] = tested on: patients with chronic schizophrenia; experiment: PANSS total score, Clinical Study Four; assay type: in vivo, human; conditions: FAS; for Adjusted Mean Change from Baseline in PANSS Total Score, Least Squares Estimates Mean / Change from Baseline in PANSS Total Score, Difference to PBO Mean / PANSS total, Adjusted Mean Change from Baseline (LS mean): ANCOVA; for PANSS total, Adjusted Mean Change from Baseline (LS mean): BX20 = 20 mg, BX30 = 30 mg
Protocol: (§1) METHODOLOGY: This study was a multinational, multicenter, randomized, double-blind, parallel-group, placebo-controlled, fixed-dose study. The study consisted of a 3- to 6-day antipsychotic-free run-in period, after which patients were randomised to 6 months of double-blind treatment with fixed doses of bifeprunox (20 mg/day (BX20) or 30 mg/day (BX30)) or placebo (PBO). Patients allocated to the BX groups were up-titrated from 0.25 mg/day over 7 days (BX20) or 8 days (BX30), and then continued on these doses for the remainder of the study. […] At predetermined time points, blood samples were obtained for drug concentration analysis of BX and its major metabolites (3′- and 4′-sulfate conjugates of BX), and pharmaco-economic assessments were performed.

[2] = tested on: patients with chronic schizophrenia; experiment: PANSS general psychopathology subscale score, Clinical Study Four; assay type: in vivo, human; conditions: FAS, ANCOVA; for PANSS general psychopathology, Adjusted Mean Change from Baseline (LS mean): LOCF
Protocol: as §1

O=c1[nH]c2cccc(N3CCN(Cc4cccc(-c5ccccc5)c4)CC3)c2o1 [Bifeprunox, 7-[4-([1,1′-biphenyl]-3-ylmethyl)-1-piperazinyl]-2(3H)-benzoxazolone]
Adjusted Mean Change from Baseline in PANSS Total Score, Least Squares Estimates Mean ([1]; Day 63, OC, listed as BX30): −12.45 | Change from Baseline in PANSS Total Score, Difference to PBO Mean ([1]; Day 63, OC, listed as BX30): −4.12 | Adjusted Mean Change from Baseline in PANSS Total Score, Least Squares Estimates Mean ([1]; Day 63, POCF, listed as BX20): −10.03 | Change from Baseline in PANSS Total Score, Difference to PBO Mean ([1]; Day 63, POCF, listed as BX20): −4.83 | Adjusted Mean Change from Baseline in PANSS Total Score, Least Squares Estimates Mean ([1]; Day 63, POCF, listed as BX30): −8.97 | Change from Baseline in PANSS Total Score, Difference to PBO Mean ([1]; Day 63, POCF, listed as BX30): −3.77 | Adjusted Mean Change from Baseline in PANSS Total Score, Least Squares Estimates Mean ([1]; Day 90, LOCF, listed as BX20): −2.18 | Change from Baseline in PANSS Total Score, Difference to PBO Mean ([1]; Day 90, LOCF, listed as BX20): −5.85 | Adjusted Mean Change from Baseline in PANSS Total Score, Least Squares Estimates Mean ([1]; Day 90, LOCF, listed as BX30): −1.47 | Change from Baseline in PANSS Total Score, Difference to PBO Mean ([1]; Day 90, LOCF, listed as BX30): −5.14 | Adjusted Mean Change from Baseline in PANSS Total Score, Least Squares Estimates Mean ([1]; Day 90, OC, listed as BX20): −14.17 | Change from Baseline in PANSS Total Score, Difference to PBO Mean ([1]; Day 90, OC, listed as BX20): −4.92 | Adjusted Mean Change from Baseline in PANSS Total Score, Least Squares Estimates Mean ([1]; Day 90, OC, listed as BX30): −12.71 | Change from Baseline in PANSS Total Score, Difference to PBO Mean ([1]; Day 90, OC, listed as BX30): −3.46 | Adjusted Mean Change from Baseline in PANSS Total Score, Least Squares Estimates Mean ([1]; Day 90, POCF, listed as BX20): −10.43 | Change from Baseline in PANSS Total Score, Difference to PBO Mean ([1]; Day 90, POCF, listed as BX20): −5.19 | Adjusted Mean Change from Baseline in PANSS Total Score, Least Squares Estimates Mean ([1]; Day 90, POCF, listed as BX30): −9.25 | Change from Baseline in PANSS Total Score, Difference to PBO Mean ([1]; Day 90, POCF, listed as BX30): −4.00 | Adjusted Mean Change from Baseline in PANSS Total Score, Least Squares Estimates Mean ([1]; Day 120, LOCF, listed as BX20): −1.20 | Change from Baseline in PANSS Total Score, Difference to PBO Mean ([1]; Day 120, LOCF, listed as BX20): −6.50 | Adjusted Mean Change from Baseline in PANSS Total Score, Least Squares Estimates Mean ([1]; Day 120, LOCF, listed as BX30): −0.84 | Change from Baseline in PANSS Total Score, Difference to PBO Mean ([1]; Day 120, LOCF, listed as BX30): −6.14 | Adjusted Mean Change from Baseline in PANSS Total Score, Least Squares Estimates Mean ([1]; Day 120, OC, listed as BX20): −15.81 | Change from Baseline in PANSS Total Score, Difference to PBO Mean ([1]; Day 120, OC, listed as BX20): −5.45 | Adjusted Mean Change from Baseline in PANSS Total Score, Least Squares Estimates Mean ([1]; Day 120, OC, listed as BX30): −14.56 | Change from Baseline in PANSS Total Score, Difference to PBO Mean ([1]; Day 120, OC, listed as BX30): −4.19 | Adjusted Mean Change from Baseline in PANSS Total Score, Least Squares Estimates Mean ([1]; Day 120, POCF, listed as BX20): −10.30 | Change from Baseline in PANSS Total Score, Difference to PBO Mean ([1]; Day 120, POCF, listed as BX20): −5.21 | Adjusted Mean Change from Baseline in PANSS Total Score, Least Squares Estimates Mean ([1]; Day 120, POCF, listed as BX30): −9.68 | Change from Baseline in PANSS Total Score, Difference to PBO Mean ([1]; Day 120, POCF, listed as BX30): −4.59 | Adjusted Mean Change from Baseline in PANSS Total Score, Least Squares Estimates Mean ([1]; Day 150, LOCF, listed as BX20): −0.56 | Change from Baseline in PANSS Total Score, Difference to PBO Mean ([1]; Day 150, LOCF, listed as BX20): −7.04 | Adjusted Mean Change from Baseline in PANSS Total Score, Least Squares Estimates Mean ([1]; Day 150, LOCF, listed as BX30): −0.31 | Change from Baseline in PANSS Total Score, Difference to PBO Mean ([1]; Day 150, LOCF, listed as BX30): −6.80 | Adjusted Mean Change from Baseline in PANSS Total Score, Least Squares Estimates Mean ([1]; Day 150, OC, listed as BX20): −16.36 | Change from Baseline in PANSS Total Score, Difference to PBO Mean ([1]; Day 150, OC, listed as BX20): −1.97 | Adjusted Mean Change from Baseline in PANSS Total Score, Least Squares Estimates Mean ([1]; Day 150, OC, listed as BX30): −15.93 | Change from Baseline in PANSS Total Score, Difference to PBO Mean ([1]; Day 150, OC, listed as BX30): −1.54 | Adjusted Mean Change from Baseline in PANSS Total Score, Least Squares Estimates Mean ([1]; Day 150, POCF, listed as BX20): −10.40 | Change from Baseline in PANSS Total Score, Difference to PBO Mean ([1]; Day 150, POCF, listed as BX20): −5.20 | Adjusted Mean Change from Baseline in PANSS Total Score, Least Squares Estimates Mean ([1]; Day 150, POCF, listed as BX30): −9.55 | Change from Baseline in PANSS Total Score, Difference to PBO Mean ([1]; Day 150, POCF, listed as BX30): −4.35 | Adjusted Mean Change from Baseline in PANSS Total Score, Least Squares Estimates Mean ([1]; Day 180, LOCF, listed as BX20): −0.81 | Change from Baseline in PANSS Total Score, Difference to PBO Mean ([1]; Day 180, LOCF, listed as BX20): −7.91 | Adjusted Mean Change from Baseline in PANSS Total Score, Least Squares Estimates Mean ([1]; Day 180, LOCF, listed as BX30): −0.44 | Change from Baseline in PANSS Total Score, Difference to PBO Mean ([1]; Day 180, LOCF, listed as BX30): −7.54 | Adjusted Mean Change from Baseline in PANSS Total Score, Least Squares Estimates Mean ([1]; Day 180, OC, listed as BX20): −18.09 | Change from Baseline in PANSS Total Score, Difference to PBO Mean ([1]; Day 180, OC, listed as BX20): −3.60 | Adjusted Mean Change from Baseline in PANSS Total Score, Least Squares Estimates Mean ([1]; Day 180, OC, listed as BX30): −18.58 | Change from Baseline in PANSS Total Score, Difference to PBO Mean ([1]; Day 180, OC, listed as BX30): −4.09 | Adjusted Mean Change from Baseline in PANSS Total Score, Least Squares Estimates Mean ([1]; Day 180, POCF, listed as BX20): −10.84 | Change from Baseline in PANSS Total Score, Difference to PBO Mean ([1]; Day 180, POCF, listed as BX20): −5.43 | Adjusted Mean Change from Baseline in PANSS Total Score, Least Squares Estimates Mean ([1]; Day 180, POCF, listed as BX30): −9.92 | Change from Baseline in PANSS Total Score, Difference to PBO Mean ([1]; Day 180, POCF, listed as BX30): −4.52 | PANSS total, Adjusted Mean Change from Baseline (LS mean) ([1]; Month 6, LOCF, listed as BX20): −4.0 | PANSS total, Adjusted Mean Change from Baseline (LS mean) ([1]; Month 6, LOCF, listed as BX30): −0.4 | PANSS total, Adjusted Mean Change from Baseline (LS mean) ([1]; Week 6, LOCF, listed as BX20): −4.0 | PANSS total, Adjusted Mean Change from Baseline (LS mean) ([1]; Week 6, LOCF, listed as BX30): −2.6 | PANSS total scores versus PBO, LOCF analysis ([1]; both BX groups): statistically significantly superior to that in the PBO group from Week 6 onwards | PANSS general psychopathology subscale scores versus PBO, per-visit LOCF analysis ([2]; BX20 and BX30): statistically significantly superior to PBO from Week 9 onwards | PANSS general psychopathology, Adjusted Mean Change from Baseline (LS mean) ([2]; Month 6, listed as BX20): 0.4 | PANSS general psychopathology, Adjusted Mean Change from Baseline (LS mean) ([2]; Month 6, listed as BX30): 0.8 | PANSS general psychopathology, Adjusted Mean Change from Baseline (LS mean) ([2]; Week 6, listed as BX20): −1.2 | PANSS general psychopathology, Adjusted Mean Change from Baseline (LS mean) ([2]; Week 6, listed as BX30): −0.4
